The text below walks through data of publication PMC10718076, “1,2-Disubstituted bicyclo[2.1.1]hexanes as saturated bioisosteres of ortho-substituted benzene” (Chemical Science, 2023).

In brackets after ≈: the same amount, converted by molar mass. Read-outs that look alike come from different tables or passages of the source.

The term microsomal CLint denotes the capacity of the preparation to metabolise the compound, expressed as a volume cleared per time. A word on the half-life: it is the time in which the quantity being followed falls by half. A high value points to slow decline. By logD is commonly meant the decadic logarithm of the distribution of all forms, ionised or not, between an organic phase and buffer at a given pH. Low values mean a more hydrophilic compound, high ones a more lipophilic compound. Usually kinetic solubility stands for solubility judged after dilution from a stock solution rather than from solid. Usually solubility stands for how much of the substance goes into solution per volume. A lower solubility goes with a poorly soluble substance.

A short description of one series: in vitro. Particulars: both, human.
The conditions of series [1]: both, human, pH 7.4.
The nature of series [2]: Kinetic solubility in phosphate-buffered saline, pH 7.4. Format: physicochemical. Particulars: 25 °C, pH 7.4, aqueous buffer, kinetic from dmso stock; for solubility at 2 h: PBS solubility. The protocol:
Analysis of Aqueous Solubility […]
compound (Ondansetron) were assessed for kinetic solubility in phosphate -buffered saline, pH 7.4.
Phosphate buffered saline, pH 7.4 (Sigma -Aldrich, USA; Cat #P3813) […]
MultiScreen HTS 96 Well Filter Plates (Millipore, Ireland; Cat # MSSLBPC10) […]
Matrix Multichannel Electronic Pipette 2-125 μL, 5-250 μL, 15-1250 μL (Thermo Scientific, USA; […]
Vacuum pump (Millipore, USA; Model # XX5500000)
The measurements were performed using SpectraMax Plus reader in UV -Vis mode. Acquisition and […]
The measurements were performed using SpectraMax Paradigm reader in UV-Vis mode.
Acquisition and analysis of the data were performed using SoftMax Pro v.5.4 (Molecular Devices) […]
Kinetic solubility assay was performed according to the Enamine’s aqueous solubility SOP. Briefly, using a 20 mM stock solution of the compound in 100% DMSO dilutions were prepared to a theoretical concentration of 400 μM in duplicates in phosphate-buffered saline pH 7.4 […]
compound dilutions in PBS were further allowed to equilibrate at 25 °C on a thermostatic shaker for two hours and then filtered through HTS filter plates using a vacuum manifold. The filtrates of test compounds were diluted 2-fold with acetonitrile with 2% DMSO before measuring.
In parallel, compound dilutions in 50% acetonitrile/PBS were prepared to theoretical concentrations […]
calibration curves. Ondansetron was used as reference compound to control proper assay performance. 200 μl of each sample was transferred to 96-well plate and measured in 230-550 nm range with 5 nm step. The effective range of this assay is approximately 2-400 μM and the […]
The concentrations of compounds in PBS filtrate are calculated using a dedicated Microsoft Excel calculation script. Proper absorbance wavelengths for calculations are selected for each compound manually based on absorbance maximums (absolute absorbance unit values for the minimum and maximum concentration points within the 0 – 3 OD range). Each final dataset is visually evaluated by the operator, and goodness of fit (R2) is calculated for each calibration curve. […]
samples were diluted 2-fold with acetonitrile containing internal standard and were analyzed using the HPLC system coupled with a tandem mass spectrometer. The effective range of this assay is […]

Series [3] in a line: Metabolic stability in human liver microsomes. Particulars: both, liver microsomes (pooled); for remaining at 40 min, 2 µM: Mean of 2, 40 min. Background: Liver microsomes are a subcellular fraction often used to study metabolism.
[4] abbreviates: microsomes, pH 7.4, % Remaining, Mean of 2.
[5] abbreviates: Table S5, injection 1, octanol/PBS pH 7.4.
Setting [6] is: Table S5, injection 2, octanol/PBS pH 7.4.
The mark [7] stands for this setting: Table S5, injection 3, octanol/PBS pH 7.4.

Method for physchem: Determination of Distribution Coefficient (LogD, pH 7.4)
coefficient (or LogD) is a logarithm of the ratio of drug concentrations in two immiscible solvents,
typically pH-buffered water and n-octanol. It is a measure of hydrophobic/hydrophilic properties of
a given molecule. The partition of test compounds is determined using a shake-flask method, which
involves mixing of a certain amount of the solute of interest in defined volumes of n-octanol and an
aqueous buffer of choice followed by equilibration of the mixture by incubation with efficient
mixing. Then, the distribution of the compounds in each solvent was controlled using LC-MS/MS.
Phosphate buffered saline, tablet (Sigma-Aldrich, USA; Cat # P4417)
Acetic acid (Enamine, Ukraine)
1.1 mL microtubes in microracks, pipettor tips (Thermo Scientific, USA).
National Scientific MicroTube™ Rack (Thermo Fisher Scientific, USA; Cat # TN094612R)
Gradient HPLC system (Shimadzu, Japan)
Triple quadrapole mass-detector API 3000 with TurboIonSpray Ion Source (AB Sciex, Canada)
MTR22 Multi Mix Rotator (UNICO, USA)
Laboratory Centrifuge, Sigma 4-15C, Qiagen (SIGMA GmbH, Germany)
Water purification system Millipore Milli-Q Gradient A10 (Millipore, France)
All measurements were performed using a Shimadzu Prominence HPLC system including a
vacuum degasser, gradient pumps, a reverse phase column, a column oven and an autosampler.
Mass spectrometric analysis was performed using an API 4000 QTRAP mass spectrometer from
Applied Biosystems/MDS Sciex (AB Sciex) with Turbo V ion source and TurboIonspray
interface. The TurboIonSpray ion source was used in both positive and negative ion modes.
Acquisition and analysis of the data were performed using Analyst 1.6.3 software.
Incubations were carried out in Eppendorf-type polypropylene microtubes in triplicates. A 2.5 μL
aliquot of 20 mM DMSO stock of a test compound was added into the previously mutually
saturated mixture containing 500 μL of PBS (pH 7.4) and 500 μL of octanol. The solution was
allowed to mix in a rotator for 1 hour at 30 rpm. Phase separation was assured by centrifugation for
2 min at 6000 rpm. The octanol phase was diluted 100-fold with 40% acetonitrile, and the aqueous
phase (PBS buffer) was diluted 10-fold with 40% acetonitrile. The samples (both phases) were
analyzed using an HPLC system coupled with a tandem mass spectrometer.
Calculations of the partition ratios were carried out using the equation below.
where: – peak area of the analyte in octanol phase
– peak area of the analyte in PBS buffer
– dilution coefficient for octanol phase dp – dilution coefficient for aqueous phase

Consider `O=C(O)Cc1ccccc1Nc1c(Cl)cccc1Cl` [Diclofenac], for which, in the series “in vitro” (microsomes, pH 7.4), the microsomal CLint at 2 µM worked out at 173 µL/min/mg and the microsomal CLint at 2 μM amounted to 272 µL/min/mg. In the series “in vitro” (pH 7.4, kel), this molecule showed a k el at 2 µM of 0.0012 s⁻¹ and a k el at 2 μM of 0.00123 s⁻¹. The molecule also registered a microsomal CLint at 2 μM in “in vitro” (s9, pH 7.4) of 178 µL/min/mg. In addition, in series [1] (microsomes, 25 min, 2 µM), the “% Remaining, Mean of 2” value came to 9%. Besides, in series [1] (s9, 25 min, 2 μM), the “% Remaining, Mean of 2” value worked out at 9%.
In the case of `Cc1nc2c([nH]1)-c1ccccc1N(C(=O)c1ccc(NC(=O)c3ccccc3-c3ccccc3)cc1)CC2` [Conivaptan, conivaptan], the microsomal CLint at 2 μM in the series “in vitro” (microsomes, pH 7.4) was 31 µL/min/mg. In addition, the amount remaining at 40 min, 2 µM came out at 101% in the series “in vitro” (microsomes, pH 7.4, % Remaining without cofactor, Mean of 2) and 60% in the series “in vitro” (setting [4]). For the same molecule, the fraction remaining at 25 min, 2 µM in “in vitro” (setting [4]) was 67%. This molecule also showed a half-life at 2 µM in “in vitro” (microsomes, pH 7.4, t1/2) of 54.4 min. The k el at 2 µM in the series “in vitro” (pH 7.4, kel) was 0.000217 s⁻¹. The molecule further displayed a D under setting [5] of 1.98E+04, a D under setting [6] of 2.11E+04 and a D under setting [7] of 1.99E+04. This molecule also had a log distribution coefficient (logD) at 1 h in “physchem” (pH 7.4, LogD, pH 7.4) of 4.3. Moreover, the solubility (kinetic) at 2 h in series [2] turned out to be 5 µM (≈ 2.49 µg/mL). Further, the solubility at 2 h in series [2] (pH 7.4, Incubation 1) amounted to 4 µM (≈ 1.99 µg/mL); in series [2] (pH 7.4, Incubation 2), 7 µM (≈ 3.49 µg/mL); in series [2] (pH 7.4, Mean), 5 µM (≈ 2.49 µg/mL).
`O=C(NC1CCN(CCCCC2(C(=O)NCC(F)(F)F)c3ccccc3-c3ccccc32)CC1)C1CC2CC1(c1ccc(C(F)(F)F)cc1)C2` (centres unmarked) [Compound 27] showed a microsomal CLint at 2 µM in series [3] (pH 7.4) of 186 µL/min/mg. The share remaining at 40 min, 2 µM in series [3] (pH 7.4, % Remaining without cofactor, no NADPH cofactor, Table S6, 1st batch) is 106%; in series [3] (pH 7.4, % Remaining, Table S6, 1st batch), 5%. For the same molecule, the share remaining at […], 2 µM in series [3] (pH 7.4, % Remaining, Mean of 2, 7 min, Table S6, 1st batch) was 47%; in series [3] (pH 7.4, % Remaining, Mean of 2, 15 min, Table S6, 1st batch), 20%. Further, the amount remaining at 25 min, 2 µM in series [3] (pH 7.4, % Remaining, Mean of 2, 25 min, Table S6, 1st batch) worked out at 9%. For the same molecule, the k el at 2 µM in series [3] (pH 7.4, kel, Table S6, 1st batch) was 0.00128 s⁻¹. Moreover, in series [3] (pH 7.4, t1/2, Table S6, 1st batch), the half-life at 2 µM was 9 min. Further, the D runs as follows: under setting [5], 7.79E+03; under setting [6], 7.46E+03; under setting [7], 8.20E+03. Further, the logD at 1 h turned out to be 3.89 in the series “physchem” (pH 7.4, LogD, pH 7.4) and 3.9 in the series “physchem” (pH 7.4, log D (7.4)). This molecule registered a solubility (kinetic) at 2 h in series [2] of 18 µM (≈ 12.6 µg/mL). Further, the solubility at 2 h in series [2] (pH 7.4, Incubation 1) stood at 18 µM (≈ 12.6 µg/mL); in series [2] (pH 7.4, Incubation 2) it was 19 µM (≈ 13.3 µg/mL); in series [2] (pH 7.4, Mean), 18 µM (≈ 12.6 µg/mL).
